# Experimental data reported in patent US6921835B2, “Cyclic amino acids and derivatives thereof useful as pharmaceutical agents” (Warner Lambert Company, priority 1997, dated 2005).
# Structures can show the parent of a compound that is named as a salt. Where two headings read alike, the source gives them in different places.
# Tests used:
# [1] = test system: Carrageenan Induced Thermal Hyperalgesia in the Rat; experiment: Carrageenan-induced thermal hyperalgesia in the rat (plantar test, paw withdrawal latency); type: in vivo; settings: MPE = maximum possible effect, baseline before carrageenan
# Protocol: Male Sprague-Dawley rats (180-250 g) were obtained from Bantin and Kingman, (Hull, U.K.). Animals were housed in groups of 6 to 10 under a 12 hour light/dark cycle (lights on at 7 hours, 0 minutes) with food and water ad libitum.
# Carrageenan-induced Thermal Hyperalgesia in the Rat
# Thermal hyperalgesia was assessed using the rat plantar test (Ugo Basile, Italy) following a modified method of Hargreaves, et al., 1988. Rats were habituated to the apparatus which consisted of three individual perspex boxes on an elevated glass table. A mobile radiant heat source located under the table was focused onto the desired paw and paw withdrawal latencies (PWL) recorded. PWL were taken 3 times for both hind paws of each animal, the mean of which represented baselines for right and left hind paws. At least 5 minutes were allowed between each PWL for an animal. The apparatus was calibrated to give a PWL of approximately 10 s. There was an automatic cutoff point of 20 s to prevent tissue damage. After baseline PWLs were determined, animals received an intraplantar injection of carrageenan (100 μL of 20 mg/mL) into the right hind paw. PWLs were reassessed following the same protocol as above 2-hour post-carrageenan (this time point represented the start of peak hyperalgesia) to ascertain that hyperalgesia had developed. Test compounds were administered orally (in a volume of 1 mL/kg) at 2.5 hours after carrageenan. PWLs were reassessed at various times after drug administration.
# [2] = molecular target: T1, α2δ subunit (Sus scrofa, UniProt A0A287BIN3); experiment: radioligand binding assay using [3H]gabapentin and the α2δ subunit; design: species or system porcine
# T1 construct: the α2δ subunit derived from porcine brain tissue was used; from tissue; host or cells: porcine brain tissue
# [3] = test system: sound-induced tonic seizures in DBA/2 mice; experiment: DBA2 test: prevention of audiogenic seizures in DBA/2 mice; type: in vivo; settings: DBA/2 mouse
# Protocol: A Model of Anticonvulsant Efficacy and Protocol for DBA2 Test: Prevention of Audiogenic Seizures in DBA/2 Mice
# All procedures were carried out in compliance with the NI/H Guide for the Care and Use of Laboratory Animals under a protocol approved by the Parke-Davis Animal Use Committee. Male DBA/2 mice, 3 to 4 weeks old, were obtained from Jackson Laboratories, Bar Harbour, Me. Immediately before anticonvulsant testing, mice were placed upon a wire mesh, 4 inches square suspended from a steel rod. The square was slowly inverted through 180 degrees and mice observed for 30 seconds. Any mouse falling from the wire mesh was scored as ataxic.
# Mice were placed into an enclosed acrylic plastic chamber (21 cm height, approximately 30 cm diameter) with a high-frequency speaker (4 cm diameter) in the center of the top lid. An audio signal generator (Protek model B-810) was used to produce a continuous sinusoidal tone that was swept linearly in frequency between 8 kHz and 16 kHz once each 10 msec. The average sound pressure level (SPL) during stimulation was approximately 100 dB at the floor of the chamber. Mice were placed within the chamber and allowed to acclimatize for 1 minute. DBA/2 mice in the vehicle-treated group responded to the sound stimulus (applied until tonic extension occurred, or for a maximum of 60 seconds) with a characteristic seizure sequence consisting of wild running followed by clonic seizures, and later by tonic extension, and finally by respiratory arrest and death in 80% or more of the mice. In vehicle-treated mice, the entire sequence of seizures to respiratory arrest lasts approximately 15 to 20 seconds.
# The incidence of all the seizure phases in the drug-treated and vehicle-treated mice was recorded, and the occurrence of tonic seizures were used for calculating anticonvulsant ED50 values by probit analysis. Mice were used only once for testing at each dose point. […] All drugs in the present study were dissolved in distilled water and given by oral gavage in a volume of 10 mL/kg of body weight. compounds that are insoluble will be suspended in 1% carboxymethocellulose. Doses are expressed as weight of the active drug moiety.
# T1 sequence (A0A287BIN3 25-1109): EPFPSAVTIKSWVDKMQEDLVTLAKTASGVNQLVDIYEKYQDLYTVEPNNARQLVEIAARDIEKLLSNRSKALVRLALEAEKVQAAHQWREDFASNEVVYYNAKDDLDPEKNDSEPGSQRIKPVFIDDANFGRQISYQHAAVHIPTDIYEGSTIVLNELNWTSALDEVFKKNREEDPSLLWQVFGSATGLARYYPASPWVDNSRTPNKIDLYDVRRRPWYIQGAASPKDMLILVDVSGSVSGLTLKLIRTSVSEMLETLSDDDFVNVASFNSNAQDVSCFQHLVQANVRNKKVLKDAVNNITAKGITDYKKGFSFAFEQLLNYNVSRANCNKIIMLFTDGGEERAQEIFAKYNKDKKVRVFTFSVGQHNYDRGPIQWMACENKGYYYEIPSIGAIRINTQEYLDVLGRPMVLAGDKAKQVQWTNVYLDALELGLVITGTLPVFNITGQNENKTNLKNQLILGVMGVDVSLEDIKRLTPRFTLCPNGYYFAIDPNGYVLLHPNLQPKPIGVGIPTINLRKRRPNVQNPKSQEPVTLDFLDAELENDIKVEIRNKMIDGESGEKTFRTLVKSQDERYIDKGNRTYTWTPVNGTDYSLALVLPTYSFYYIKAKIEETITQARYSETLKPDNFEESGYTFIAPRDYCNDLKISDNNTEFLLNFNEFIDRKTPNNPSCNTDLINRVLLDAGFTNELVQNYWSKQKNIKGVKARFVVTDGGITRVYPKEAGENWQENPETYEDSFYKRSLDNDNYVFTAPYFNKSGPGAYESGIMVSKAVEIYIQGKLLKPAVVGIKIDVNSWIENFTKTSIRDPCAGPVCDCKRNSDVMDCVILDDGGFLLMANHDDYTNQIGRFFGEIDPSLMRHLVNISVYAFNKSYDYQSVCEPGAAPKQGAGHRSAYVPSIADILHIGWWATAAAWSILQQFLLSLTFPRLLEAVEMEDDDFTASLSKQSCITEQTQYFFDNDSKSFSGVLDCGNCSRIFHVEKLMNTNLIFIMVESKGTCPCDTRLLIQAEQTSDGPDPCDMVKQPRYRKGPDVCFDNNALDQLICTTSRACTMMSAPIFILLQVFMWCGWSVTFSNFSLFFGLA
structure (smiles),measurement,setting,value
NCC1(CC(=O)O)CC(Cc2ccccc2)C1 (mixture of isomers) [(cis/trans)-(1-Aminomethyl-3-benzyl-cyclobutyl)-acetic acid hydrochloride],% MPE 1 hr postdose @ 30 mg/kg PO,[1],0 % MPE
same,% MPE 2 hr postdose @ 30 mg/kg PO,[1],0 % MPE
same,IC50,[2],> 10 µM
C[C@@H]1CCC(CN)(CC(=O)O)C1 (mixture of isomers) [(cis/trans)-(3R)-(1-Aminomethyl-3-methyl-cyclopentyl)-acetic acid hydrochloride],% MPE 1 hr postdose @ 30 mg/kg PO,[1],67 % MPE
same,% MPE 2 hr postdose @ 30 mg/kg PO,[1],53 % MPE
same,% Protected 1 hr postdose 30 mg/kg PO,[3],100%
same,IC50,[2],0.088 µM
Cl.NCC1(CC(=O)O)CCC1 [(1-Aminomethyl-cyclobutyl)-acetic acid hydrochloride],% MPE 1 hr postdose @ 30 mg/kg PO,[1],4 % MPE
same,% MPE 2 hr postdose @ 30 mg/kg PO,[1],4 % MPE
same,% Protected (2 hour postdose) 30 mg/kg PO,[3]; 2 hour postdose,20 (2 hour postdose) %
same,IC50,[2],0.598 µM
"C[C@H]1CC(CN)(CC(=O)O)C[C@@H]1C.Cl [(3S,4S)-(1-Aminomethyl-3,4-dimethyl-cyclopentyl)-acetic acid hydrochloride]",% MPE 1 hr postdose @ 30 mg/kg PO,[1],109 % MPE
same,% MPE 2 hr postdose @ 30 mg/kg PO,[1],118 % MPE
same,% Protected 1 hr postdose 30 mg/kg PO,[3],100%
same,IC50,[2],0.022 µM
"C[C@@H]1CC(CN)(CC(=O)O)C[C@H]1C.Cl (racemic) [(±)-(trans)-(1-Aminomethyl-3,4-dimethyl-cyclopentyl)-acetic acid hydrochloride]",% MPE 1 hr postdose @ 30 mg/kg PO,[1],23 % MPE
same,% MPE 2 hr postdose @ 30 mg/kg PO,[1],72 % MPE
same,% Protected 1 hr postdose 30 mg/kg PO,[3],100%
same,IC50,[2],0.034 µM
"C[C@@H]1C[C@](CN)(CC(=O)O)C[C@@H]1C [(1α,3β,4β)-(1-Aminomethyl-3,4-dimethyl-cyclopentyl)-acetic acid hydrochloride]",% MPE 1 hr postdose @ 30 mg/kg PO,[1],−7 % MPE
same,% MPE 2 hr postdose @ 30 mg/kg PO,[1],−2 % MPE
same,% Protected 1 hr postdose 30 mg/kg PO,[3],100%
same,IC50,[2]; read-out: IC50 (μM) at α2δ binding site,0.154 µM
"C[C@@H]1CC(CN)(CC(=O)O)C[C@H]1C [(3R,4R)-(1-Aminomethyl-3,4-dimethyl-cyclopentyl)-acetic acid hydrochloride]",IC50,[2],1 µM
